Assay results taken from patent US9062037B2, “Tazarotene derivatives” (Stiefel Laboratories, Inc., priority 2009, dated 2015).
Read-outs that look alike come from different tables or passages of the source.

Assays:
[1] = In vitro application of DUAC gel/TAZORAC cream mixture to split-thickness human skin; tazarotene and degradants quantified by LC/MS/MS; type: in vitro ADME
Description: An in vitro study was conducted to assess the formation of tazarotene degradants following the application of a mixture of DUAC gel and TAZORAC cream to human skin.
Equal portions of DUAC gel and TAZORAC cream were dispensed into a glass vial and mixed for approximately three minutes with a metal spatula to ensure a homogenous mixture. Samples of European DUAC gel and US DUAC gel were used in separate experiments. […] The test mixtures were then applied to the surface of split-thickness skin (˜0.25 mm) at a dose of 15.6 mg/cm^2 and spread evenly using a positive displacement pipette.
After 2 and 6 hours, the skin samples were washed, tape stripped twice, and then the epidermis was peeled from the dermis using a heat block. The skin samples were then extracted with acetonitrile overnight at 4° C. The distribution of tazarotene and its degradants within the epidermis, dermis and surface wash were quantified by LC/MS/MS with a 50 pg/mL LOQ. The experiments were performed under yellow light conditions. For the purposes of comparison, mixtures of DUAC gel and TAZORAC cream were also prepared and retained for stability testing at 0, 2 and 6 hour time points.

[2] = Stability in rat plasma at room temperature; type: in vitro ADME
Description: (§1) Tazarotene, tazarotene sulfoxide and tazarotene benzoate were incubated at room temperature with human and rat plasma. The incubation was carried out in duplicate and samples were taken at specific time points for stability analyses (i) rat samples (0 hour, 2 hours and 4 hours) and (ii) human samples (0 hour, 2 hours, 4 hours and 8 hours). Samples were analyzed by LC-MS/MS.

[3] = for k constant: HLM
[4] = Stability in human plasma at room temperature; type: in vitro ADME
Description: as §1

[5] = HPLC analysis of mixtures of DUAC gel and TAZORAC cream (degradation of tazarotene in the presence of benzoyl peroxide); type: physicochemical; conditions: fresh samples; 35° C.; 4 hours
Description: DUAC® gel (1% clindamycin and 5% benzoyl peroxide marketed by Stiefel Laboratories, Inc.) and TAZORAC® cream (0.1% tazarotene marketed by Allergan, Inc.) have been successfully used to treat facial acne. However, these topical treatments are not approved for concomitant use. To study whether tazarotene is susceptible to oxidative decomposition by benzoyl peroxide, an in vitro laboratory study was conducted wherein a mixture of DUAC gel and TAZORAC cream was prepared.
Samples were prepared by taking equal portions of DUAC gel and TAZORAC cream and mixing them thoroughly at room temperature with a spatula in a suitable container to form a uniform mixture. The initial samples were analyzed immediately by HPLC. The other samples were placed into an oven at 35° C. and removed for analysis after one, two, four, six and eight hours. An allowance was made for product evaporation over the course of the study.

[6] = in vitro; conditions: human, liver microsomes, pH 7.4, Half-life, HLM
[7] = 1 μM initial concentration, Complete (with NADPH), 0 min
[8] = 1 μM initial concentration, Complete (with NADPH), 15 min
[9] = 1 μM initial concentration, Complete (with NADPH), 30 min
[10] = 1 μM initial concentration, Complete (with NADPH), 45 min
[11] = 1 μM initial concentration, Complete (with NADPH), 60 min
[12] = 1 μM initial concentration, Without NADPH, 0 min
[13] = 1 μM initial concentration, Without NADPH, 15 min
[14] = 1 μM initial concentration, Without NADPH, 30 min
[15] = 1 μM initial concentration, Without NADPH, 45 min
[16] = 1 μM initial concentration, Without NADPH, 60 min
[17] = 10 μM initial concentration, Complete (with NADPH), 0 min
[18] = 10 μM initial concentration, Complete (with NADPH), 15 min
[19] = 10 μM initial concentration, Complete (with NADPH), 30 min
[20] = 10 μM initial concentration, Complete (with NADPH), 45 min
[21] = 10 μM initial concentration, Complete (with NADPH), 60 min
[22] = 10 μM initial concentration, Without NADPH, 0 min
[23] = 10 μM initial concentration, Without NADPH, 15 min
[24] = 10 μM initial concentration, Without NADPH, 30 min
[25] = 10 μM initial concentration, Without NADPH, 45 min
[26] = 10 μM initial concentration, Without NADPH, 60 min

Row | Compound | Test Article remaining, percent of initial concentration [3, 7] | Test Article remaining, percent of initial concentration [3, 8] | Test Article remaining, percent of initial concentration [3, 9] | Test Article remaining, percent of initial concentration [3, 10] | Test Article remaining, percent of initial concentration [3, 11] | Test Article remaining, percent of initial concentration [3, 12] | Test Article remaining, percent of initial concentration [3, 13] | Test Article remaining, percent of initial concentration [3, 14] | Test Article remaining, percent of initial concentration [3, 15] | Test Article remaining, percent of initial concentration [3, 16] | Test Article remaining, percent of initial concentration [3, 17] | Test Article remaining, percent of initial concentration [3, 18] | Test Article remaining, percent of initial concentration [3, 19] | Test Article remaining, percent of initial concentration [3, 20] | Test Article remaining, percent of initial concentration [3, 21] | Test Article remaining, percent of initial concentration [3, 22] | Test Article remaining, percent of initial concentration [3, 23] | Test Article remaining, percent of initial concentration [3, 24] | Test Article remaining, percent of initial concentration [3, 25] | Test Article remaining, percent of initial concentration [3, 26] | further results
1 | CCOC(=O)c1ccc(C#Cc2ccc3c(c2)C(C)(C)CC[S+]3[O-])nc1 (stereo not shown) [Tazarotene sulfoxide, 6-(4,4-Dimethyl-1-oxo-1λ^4-thiochroman-6-ylethynyl)nicotinic acid ethyl ester] | 100% | 25.6% | 8.86% | 4.24% | 2.17% | 100% | 27.9% | 8.40% | 2.72% | 1.11% | 100% | 30.9% | 11.4% | 4.80% | 2.70% | 100% | 30.4% | 8.96% | 2.98% | 1.18% | identified in the epidermis and dermis ([1]; after 2 hours of application of the DUAC/TAZORAC mixture to the skin): identified in the epidermis and dermis; quantity in stability samples at the 6 hour time point relative to the 2 hour time point ([1]; mixture of DUAC gel and TAZORAC cream retained for stability testing): doubled; concentration in rat plasma ([2]; 0 hour): 34.1 ng/mL; concentration in rat plasma ([2]; 2 hours): <LOD; concentration in rat plasma ([2]; 4 hours): <LOD; k constant ([3]; 1 μM, Complete): −0.0689; k constant ([3]; 1 μM, Without NADPH): −0.0779; k constant ([3]; 10 μM, Complete): −0.0647; k constant ([3]; 10 μM, Without NADPH): −0.0763; concentration in human plasma ([4]; 0 hour): 36.2 ng/mL; concentration in human plasma ([4]; 2 hours): 34.0 ng/mL; concentration in human plasma ([4]; 4 hours): 32.2 ng/mL; concentration in human plasma ([4]; 8 hours): 31.9 ng/mL; % Label Tazarotene Sulfoxide [5]: ~16 % Label; half-life at 1 µM ([6]; Complete): 10.1 min; half-life at 1 µM ([6]; Without NADPH): 8.9 min; half-life at 10 µM ([6]; Complete): 10.7 min; half-life at 10 µM ([6]; Without NADPH): 9.08 min
2 | CC1(C)CCSc2ccc(C#Cc3ccc(C(=O)O)cn3)cc21 [Tazarotenic acid] | 100% | 89.9% | 82.0% | 75.8% | 68.0% | 100% | 100% | 101% | 102% | 101% | 100% | 93.1% | 88.6% | 77.8% | 77.4% | 100% | 102% | 99.0% | 106% | 102% | detection of tazarotenic acid ([1]; under these experimental conditions): not detected; k constant ([3]; 1 μM, Complete): −0.0064; k constant ([3]; 1 μM, Without NADPH): 0.0003; k constant ([3]; 10 μM, Complete): −0.0047; k constant ([3]; 10 μM, Without NADPH): 0.0006; metabolized by human liver microsomes ([3]; in the absence of NADPH): not metabolized; metabolized by human liver microsomes to tazarotenic acid sulfoxide ([3]; in the presence of NADPH): slowly metabolized; half-life at 1 µM ([6]; Complete): 108 min; half-life at 10 µM ([6]; Complete): 147 min
